From article PMC3543460, “Structure-Activity Relationships of the Antimicrobial Peptide Arasin 1 — And Mode of Action Studies of the N-Terminal, Proline-Rich Region” (PLoS ONE, 2013)
Values after ≈ are worked out from the molar mass of the structure shown. Peptide text beside a SMILES is read from it. * marks the point of attachment. Acm = CC(=O)NC*

How the values were obtained:
E. coli ATCC 25922 = assay type: cell-based, Escherichia coli; conditions: ATCC 25922, 24 h
Procedure: (§1) Escherichia coli (ATCC 25922), E. coli HB101, Pseudomonas aeruginosa (ATCC 27853), Staphylococcus aureus (ATCC 9144) and Corynebacterium glutamicum (ATCC 13032) were grown at 37°C in Mueller Hinton agar (MH; Difco Laboratories, Detroit, USA). The yeasts Candida albicans (ATCC 10231) and Saccharomyces cerevisiae spp and the mold Botrytis cinerea 101 [33] were cultivated on potato dextrose agar supplemented with 2% glucose at room temperature (RT).
(§2) Determination of the MIC against bacteria was performed by continuous monitoring of bacterial growth using a Bioscreen C microbiology reader (Labsystems Oy, Helsinki, Finland). The synthetic peptides were tested for antibacterial and antifungal activity at final concentrations (prepared from serial two-fold dilutions) ranging from 0.2 µM to 100 µM. The test was performed in 100-well flat-bottomed honeycomb plates, in which 50 µl peptide solution was incubated with 50 µl of a suspension of an actively growing culture of bacteria diluted to a starting concentration of 2.5×10^5 CFU/ml in Mueller Hinton Broth (MHB). The growth chamber was maintained at 37°C during the incubation period. The absorbance was measured by a turbidometric method with vertical light photometry and a wide band filter (420–580 nm). MIC was defined as the lowest concentration resulting in no visible bacterial growth after 24 h.

P. aeruginosa ATCC 27853 = assay type: cell-based, Pseudomonas aeruginosa; conditions: ATCC 27853, 24 h
Procedure: as §1, §2

C. glutamicum ATCC 13032 = assay type: cell-based, Corynebacterium glutamicum; conditions: ATCC 13032, 24 h
Procedure: as §1, §2

S. aureus ATCC 9144 = assay type: cell-based, Staphylococcus aureus; conditions: ATCC 9144, 24 h
Procedure: as §1, §2

S. cerevisiae spp. = assay type: cell-based, Saccharomyces cerevisiae; conditions: 48 h
Procedure: as §1
(§3) Fungal spores were dissolved in potato dextrose broth (Difco, Lawrence, KS, USA) and the cell concentration was determined and adjusted after counting in a Bürker chamber. Botrytis cinerea was filtered through a piece of cotton before counting. An aliquot of 50 µl of fungal spores (final concentration 2×10^5 spores/ml) were inoculated in 96-well Nunclon™ microtitre plates (Nagle Nunc Int. Roskilde, Denmark) along with 50 µl of synthetic peptide dissolved in Milli-Q water. Cultures were grown in a dark moist chamber without shaking at 20°C for S. cerevisiae and B. cinerea, and at 37°C for C. albicans. Growth inhibition was determined microscopically after 48 h of incubation. Inhibitory concentrations (IC50) was defined as the lowest concentration tested which yielded less than 50% visible growth compared to the growth control (fungi). Each peptide was tested in parallels in three individual runs for the antimicrobial assays.

C. albicans ATCC 10231 = assay type: cell-based, Candida albicans; conditions: for IC50: ATCC 10231, 48 h
Procedure: as §1, §3

B. cinerea 101 = assay type: cell-based, Botrytis cinerea; conditions: 101, 48 h
Procedure: as §1, §3

| Structure (SMILES) | MIC E. coli ATCC 25922 (E. coli ATCC 25922) [µM] | MIC P. aeruginosa ATCC 27853 (P. aeruginosa ATCC 27853) [µM] | MIC C. glutamicum ATCC 13032 (C. glutamicum ATCC 13032) [µM] | MIC S. aureus ATCC 9144 (S. aureus ATCC 9144) [µM] | IC50 (S. cerevisiae spp.) [µM] | IC50 (C. albicans ATCC 10231) [µM] | IC50 (B. cinerea 101) [µM] | IC50 C. albicans ATCC 10231 (C. albicans ATCC 10231; lowest concentration tested giving less than 50% visible growth vs growth control, potato dextrose medium, 37°C, 48 h, three individual experiments) [µM] |
| --- | --- | --- | --- | --- | --- | --- | --- | --- |
| N=C(N)NCCC[C@H](NC(=O)[C@@H](N)CO)C(=O)N[C@@H](Cc1c[nH]c2ccccc12)C(=O)N1CCC[C@H]1C(=O)N[C@@H](CO)C(=O)N1CCC[C@H]1C(=O)NCC(=O)N[C@@H](CCCNC(=N)N)C(=O)N1CCC[C@H]1C(=O)N[C@@H](CCCNC(=N)N)C(=O)N1CCC[C@H]1C(=O)N[C@@H](Cc1ccccc1)C(=O)N1CCC[C@H]1C(=O)NCC(=O)O [Arasin 1(1–14)] (H-SRWPSPGRPRPFPG-OH; N-terminus and C-terminus assumed) | >100 | >100 | >100 | >100 | > 100 | > 100 | > 100 |  |
| CC[C@H](C)[C@H](NC(=O)[C@@H]1CCCN1C(=O)[C@H](CCCCN)NC(=O)[C@@H]1CCCN1C(=O)[C@H](CCCNC(=N)N)NC(=O)CNC(=O)[C@@H]1CCCN1C(=O)[C@H](Cc1ccccc1)NC(=O)[C@@H]1CCCN1C(=O)[C@H](CCCNC(=N)N)NC(=O)[C@@H]1CCCN1C(=O)[C@H](CCCNC(=N)N)NC(=O)CNC(=O)[C@@H]1CCCN1C(=O)[C@H](CO)NC(=O)[C@@H]1CCCN1C(=O)[C@H](Cc1c[nH]c2ccccc12)NC(=O)[C@H](CCCNC(=N)N)NC(=O)[C@@H](N)CO)C(=O)N[C@@H](Cc1ccccc1)C(=O)O [Arasin 1(1–20)] (H-SRWPSPGRPRPFPGRPKPIF-OH; N-terminus and C-terminus assumed) | >100 | >100 | 12.5 to 25 | >100 | 25 |  | 25 to 50 | 50 |
| CC[C@H](C)[C@H](NC(=O)[C@@H]1CCCN1C(=O)[C@H](CCCCN)NC(=O)[C@@H]1CCCN1C(=O)[C@H](CCCNC(=N)N)NC(=O)CNC(=O)[C@@H]1CCCN1C(=O)[C@H](Cc1ccccc1)NC(=O)[C@@H]1CCCN1C(=O)[C@H](CCCNC(=N)N)NC(=O)[C@@H]1CCCN1C(=O)[C@H](CCCNC(=N)N)NC(=O)CNC(=O)[C@@H]1CCCN1C(=O)[C@H](CO)NC(=O)[C@@H]1CCCN1C(=O)[C@H](Cc1c[nH]c2ccccc12)NC(=O)[C@H](CCCNC(=N)N)NC(=O)[C@@H](N)CO)C(=O)N[C@@H](Cc1ccccc1)C(=O)N[C@@H](CCCNC(=N)N)C(=O)N1CCC[C@H]1C(=O)N[C@@H](CCCNC(=N)N)C(=O)N1CCC[C@H]1C(=O)N[C@@H](CSCNC(C)=O)C(=O)N[C@@H](CC(N)=O)C(=O)N[C@@H](CSCNC(C)=O)C(=O)N[C@@H](Cc1ccc(O)cc1)C(=O)N[C@@H](C)C(=O)N1CCC[C@H]1C(=O)N1CCC[C@H]1C(=O)N[C@@H](CSCNC(C)=O)C(=O)N1CCC[C@H]1C(=O)N[C@@H](CSCNC(C)=O)C(=O)N[C@@H](CC(=O)O)C(=O)N[C@@H](CCCNC(=N)N)C(=O)N[C@@H](Cc1c[nH]c2ccccc12)C(=O)O [Arasin 1-Acm] (H-SRWPSPGRPRPFPGRPKPIFRPRPC(Acm)NC(Acm)YAPPC(Acm)PC(Acm)DRW-OH; N-terminus and C-terminus assumed) | 25 to 50 | 100 (≈ 463 µg/mL) | 0.8 (≈ 3.71 µg/mL) | >100 | 12.5 | 25 | 12.5 to 50 |  |
